From patent publication US20260125375A1 (Pfizer Inc., priority 2022, published 2026) come the findings set out here.

One test has as its target T1, CBL-B (residues 36-427) (Homo sapiens, UniProt Q13191).
T1 construct: Purified CBL-B (residues 36-427) and C-CBL (residues 46-435) proteins from baculovirus-infected insect cells; made in house; host or cells: baculovirus-infected insect cells
In words: Ligand Displacement Assay (LDA), HTRF competitive binding against BODIPY-labeled fluorescent tracer, CBL-B. Conditions: geometric mean of the number of tests, read-out: CBL-B Ki (nM) GMean. The procedure, abridged: (§1)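 Competition with a BODIPY fluorescent tracer was read by HTRF, each protein carrying an N-terminal biotinylated AviTag bound to Tb-streptavidin. Tracer KD values were set beforehand per protein; Ki derives from duplicate three-fold compound series ([…], 2% DMSO), averaged geometrically across tests.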

The target in the next test is T2, C-CBL (residues 46-435) (Homo sapiens, UniProt P22681).
T2 construct: Purified CBL-B (residues 36-427) and C-CBL (residues 46-435) proteins from baculovirus-infected insect cells; made in house; host or cells: baculovirus-infected insect cells
T2 sequence (P22681 46-435): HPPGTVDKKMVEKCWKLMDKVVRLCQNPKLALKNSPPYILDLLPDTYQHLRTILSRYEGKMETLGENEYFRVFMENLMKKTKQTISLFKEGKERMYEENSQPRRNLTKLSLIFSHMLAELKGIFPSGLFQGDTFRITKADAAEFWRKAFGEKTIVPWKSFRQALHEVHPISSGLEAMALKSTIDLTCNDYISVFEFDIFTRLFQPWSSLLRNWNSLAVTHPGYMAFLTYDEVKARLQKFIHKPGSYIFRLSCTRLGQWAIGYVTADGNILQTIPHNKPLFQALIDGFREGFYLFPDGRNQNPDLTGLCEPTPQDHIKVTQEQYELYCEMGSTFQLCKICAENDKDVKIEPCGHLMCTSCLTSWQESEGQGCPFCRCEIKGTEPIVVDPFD
The test is described as follows: Ligand Displacement Assay (LDA), HTRF competitive binding against BODIPY-labeled fluorescent tracer, C-CBL. Conditions: geometric mean of the number of tests, read-out: C-CBL Ki (nM) GMean. The procedure, abridged:
as §1
(In general: TR-FRET usually uses a lanthanide donor and a delayed reading to cut background.)

The target of another test is T3, WT CBL-B (36-427) (Homo sapiens, UniProt Q13191).
T3 construct: N-terminal biotinylated WT CBL-B (36-427) and C-CBL (46-435) were captured on a streptavidin (SA) coated sensor chip
The test is described as follows: Surface Plasmon Resonance (SPR) assay, binding affinity and kinetics, CBL-B. Conditions: SPR at 10° C., biotinylated WT CBL-B (36-427) on streptavidin chip; geometric mean; read-out: CBL-B SPR Kd (nM) GMean. The gist of the method:
(§2)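 SPR kinetics at 10° C, run either single-cycle (0.001–1 μM, 3-fold, 6 points, 120 s on, >5400 s off) or multi-cycle (10 points, 2-fold, top 10 or 100 μM, 90 s on). Proteins were N-biotinylated CBL-B (36-427) and C-CBL (46-435) on SA surfaces, in pH 7.2 HEPES, 2% DMSO.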

A further test addresses T4, C-CBL (46-435) (Homo sapiens, UniProt P22681).
T4 construct: N-terminal biotinylated WT CBL-B (36-427) and C-CBL (46-435) were captured on a streptavidin (SA) coated sensor chip
T4 sequence (P22681 46-435): T2 sequence (P22681 46-435)
In words: Surface Plasmon Resonance (SPR) assay, binding affinity and kinetics, C-CBL. Particulars: SPR at 10° C., biotinylated C-CBL (46-435) on streptavidin chip; geometric mean; read-out: C-CBL SPR Kd (nM) GMean. The procedure, abridged:
as §2

A word on the Ki: it is the dissociation constant of the complex between target and ligand, obtained from inhibition or displacement. The Kd is the constant that tells how readily two partners part at equilibrium.

`CCNC(C)c1nc(C(F)(F)F)cc2c(-c3cccc(C4(Cc5nncn5C)COC4)c3)n[nH]c12` (single isomer, unassigned) [Example C83, (1ξ)-N-ethyl-1-[3-(3-{3-[(4-methyl-4H-1,2,4-triazol-3-yl)methyl]oxetan-3-yl}phenyl)-5-(trifluoromethyl)-1H-pyrazolo[3,4-c]pyridin-7-yl]ethan-1-amine]: the Ki is 37.1 nM on CBL-B (residues 36-427) and 137 nM on C-CBL (residues 46-435). Further, the Kd on WT CBL-B (36-427) amounted to 12.4 nM; on C-CBL (46-435), 161 nM.
The corresponding values for `Cn1cnnc1CC1(c2cccc(-c3n[nH]c4c(CN5C[C@@H](F)[C@H](F)C5)nc(C(F)(F)F)cc34)c2)COC1` [Example C66, 7-{[(3R,4R)-3,4-difluoropyrrolidin-1-yl]methyl}-3-(3-{3-[(4-methyl-4H-1,2,4-triazol-3-yl)methyl]oxetan-3-yl}phenyl)-5-(trifluoromethyl)-1H-pyrazolo[3,4-c]pyridine] are 20 nM, 112 nM, 9.6 nM and 97 nM.
Consider `Cc1nccc2c(-c3cccc([C@H](c4nncn4C)C4CCC4)c3)n[nH]c12` [Example A7, 3-{3-[(R)-cyclobutyl(4-methyl-4H-1,2,4-triazol-3-yl)methyl]phenyl}-7-methyl-1H-pyrazolo[3,4-c]pyridine], for which the Ki at CBL-B (residues 36-427) turned out to be 83.8 nM; on C-CBL (residues 46-435), 767 nM. Also, the Kd was 31 nM on WT CBL-B (36-427) and 1300 nM on C-CBL (46-435).
As to `CNc1nc2[nH]nc(-c3cccc([C@H](c4nncn4C)C4CCC4)c3)c2cc1C(F)(F)F` [E2, 3-{3-[(R)-cyclobutyl(4-methyl-4H-1,2,4-triazol-3-yl)methyl]phenyl}-N-methyl-5-(trifluoromethyl)-1H-pyrazolo[3,4-b]pyridin-6-amine], the Ki at CBL-B (residues 36-427) amounted to 244 nM; on C-CBL (residues 46-435), 2650 nM. For the same molecule, the Kd amounted to 53.9 nM on WT CBL-B (36-427) and 1730 nM on C-CBL (46-435).
The corresponding values for `C[C@@H](c1nc(C(F)(F)F)cc2c(-c3cccc(C4(Cc5nncn5C)COC4)c3)n[nH]c12)N1CCC1` (single isomer, unassigned) [Example D41] are 18.5 nM, 65.5 nM, 6.2 nM and 50.8 nM.
On to `CN[C@@H](C)c1nc(C(F)(F)F)cc2c(-c3cccc(C4(Cc5nncn5C)COC4)c3)n[nH]c12` (single isomer, unassigned) [Example D37], for which the Ki at CBL-B (residues 36-427) stood at 22.2 nM; at C-CBL (residues 46-435), 64.5 nM. Also, the Kd was 7.9 nM at WT CBL-B (36-427) and 68.6 nM on C-CBL (46-435).
As for `Cn1cnnc1[C@@H](c1cccc(-c2n[nH]c3c(CN4CC(F)C4)nc(C(F)(F)F)cc23)c1)C1CCC1` [Example C106, 3-{3-[(R)-cyclobutyl(4-methyl-4H-1,2,4-triazol-3-yl)methyl]phenyl}-7-[(3-fluoroazetidin-1-yl)methyl]-5-(trifluoromethyl)-1H-pyrazolo[3,4-c]pyridine], the values for the Ki on CBL-B (residues 36-427) and on C-CBL (residues 46-435) were 41.6 nM and 475 nM, respectively. In addition, the Kd came out at 5.9 nM on WT CBL-B (36-427) and 265 nM at C-CBL (46-435).
In the case of `Cn1cnnc1[C@@H](c1cccc(-c2n[nH]c3c(CN4CCNCC4)nc(C(F)(F)F)cc23)c1)C1CCC1` [Example D84], the inhibitory constant (Ki) at CBL-B (residues 36-427) is 21.9 nM; at C-CBL (residues 46-435) it was 144 nM. Moreover, the Kd is 5.6 nM at WT CBL-B (36-427) and 148 nM at C-CBL (46-435).
As to `CC(C)NCc1nc(C(F)(F)F)cc2c(-c3cccc([C@H](c4nncn4C)C4CCC4)c3)n[nH]c12` [Example D80], the Ki at CBL-B (residues 36-427) turned out to be 23 nM; on C-CBL (residues 46-435), 181 nM. Moreover, the Kd at WT CBL-B (36-427) is 9.5 nM; at C-CBL (46-435), 306 nM.
For `Cn1cnnc1CC1(c2cccc(-c3n[nH]c4cnc(OC(F)(F)F)cc34)c2)COC1` [Example B9, 3-(3-{3-[(4-methyl-4H-1,2,4-triazol-3-yl)methyl]oxetan-3-yl}phenyl)-5-(trifluoromethoxy)-1H-pyrazolo[3,4-c]pyridine], in that order: 74.5 nM, 238 nM, 32.5 nM and 244 nM.
For `Cn1cnnc1CC1(c2cccc(-c3n[nH]c4c(CNC5CC(F)(F)C5)nc(C(F)(F)F)cc34)c2)COC1` [Example C78, 3,3-difluoro-N-{[3-(3-{3-[(4-methyl-4H-1,2,4-triazol-3-yl)methyl]oxetan-3-yl}phenyl)-5-(trifluoromethyl)-1H-pyrazolo[3,4-c]pyridin-7-yl]methyl}cyclobutan-1-amine], in that order: 56.6 nM, 253 nM, 10 nM and 144 nM.
`Cn1cnnc1[C@@H](c1cccc(-c2n[nH]c3c(CN4CC[C@H](F)C4)nc(C(F)(F)F)cc23)c1)C1CCC1` [Example C110, 3-{3-[(R)-cyclobutyl(4-methyl-4H-1,2,4-triazol-3-yl)methyl]phenyl}-7-{[(3S)-3-fluoropyrrolidin-1-yl]methyl}-5-(trifluoromethyl)-1H-pyrazolo[3,4-c]pyridine]: the Ki on CBL-B (residues 36-427) amounted to 50 nM; on C-CBL (residues 46-435) it was 464 nM. Further, the Kd at WT CBL-B (36-427) was found to be 6.4 nM; at C-CBL (46-435), 300 nM.
For `Cn1cnnc1[C@@H](c1cccc(-c2n[nH]c3c(CN4C[C@H](O)[C@@H](O)C4)nc(C(F)(F)F)cc23)c1)C1CCC1` [Example C76, (3S,4S)-1-{[3-{3-[(R)-cyclobutyl(4-methyl-4H-1,2,4-triazol-3-yl)methyl]phenyl}-5-(trifluoromethyl)-1H-pyrazolo[3,4-c]pyridin-7-yl]methyl}pyrrolidine-3,4-diol], in that order: 3.3 nM, 41.4 nM, 2.5 nM and 52.1 nM.
The corresponding values for `Cn1cnnc1CC1(c2cccc(-c3n[nH]c4c(CCN)nc(C(F)(F)F)cc34)c2)COC1` [Example K5, 2-[3-(3-{3-[(4-methyl-4H-1,2,4-triazol-3-yl)methyl]oxetan-3-yl}phenyl)-5-(trifluoromethyl)-1H-pyrazolo[3,4-c]pyridin-7-yl]ethan-1-amine] are 55.3 nM, 199 nM, 23.6 nM and 221 nM.
The corresponding values for `CNc1nc(C(F)(F)F)cc2c(-c3cccc(C4(Cc5nncn5C)COC4)c3)n[nH]c12` [Example J8, N-methyl-3-(3-{3-[(4-methyl-4H-1,2,4-triazol-3-yl)methyl]oxetan-3-yl}phenyl)-5-(trifluoromethyl)-1H-pyrazolo[3,4-c]pyridin-7-amine] are 69.3 nM, 251 nM, 16.1 nM and 136 nM.
Take `Cn1cnnc1[C@@H](c1cccc(-c2n[nH]c3c(CN[C@H]4CCC[C@H]4O)nc(C(F)(F)F)cc23)c1)C1CCC1` [Example C122, (1R,2S)-2-({[3-{3-[(R)-cyclobutyl(4-methyl-4H-1,2,4-triazol-3-yl)methyl]phenyl}-5-(trifluoromethyl)-1H-pyrazolo[3,4-c]pyridin-7-yl]methyl}amino)cyclopentan-1-ol]: the Ki at CBL-B (residues 36-427) worked out at 29.2 nM; at C-CBL (residues 46-435), 294 nM. Further, the Kd is 5.5 nM at WT CBL-B (36-427) and 146 nM on C-CBL (46-435).
Regarding `CN1CC[C@@H](Oc2nc(C(F)(F)F)cc3c(-c4cccc([C@H](c5nncn5C)C5CCC5)c4)n[nH]c23)C1` [Example J4, 3-{3-[(R)-cyclobutyl(4-methyl-4H-1,2,4-triazol-3-yl)methyl]phenyl}-7-{[(3R)-1-methylpyrrolidin-3-yl]oxy}-5-(trifluoromethyl)-1H-pyrazolo[3,4-c]pyridine], the values for the Ki on CBL-B (residues 36-427) and at C-CBL (residues 46-435) were 9.2 nM and 83.6 nM, respectively. For the same molecule, the Kd on WT CBL-B (36-427) was found to be 3.7 nM; at C-CBL (46-435), 145 nM.
For `Cn1cnnc1[C@@H](c1cccc(-c2n[nH]c3c(CNC4CCC4)nc(C(F)(F)F)cc23)c1)C1CCC1` [Example C105, N-{[3-{3-[(R)-cyclobutyl(4-methyl-4H-1,2,4-triazol-3-yl)methyl]phenyl}-5-(trifluoromethyl)-1H-pyrazolo[3,4-c]pyridin-7-yl]methyl}cyclobutanamine], in that order: 29.4 nM, 244 nM, 4.2 nM and 132 nM.
